Results reported in patent US6316485A, “1,5-diphenylpyrazole derivatives” (Fujisawa Pharmaceutical Co., Ltd., priority 1997, dated 2001).

Experiments:
Human COX-II = target: T1, Human COX-II (Homo sapiens, UniProt P35354); assay: Human recombinant COX-II activity in vitro (PGE2 formation, radioimmunoassay); assay type: biochemical; settings: recombinant human COX-II expressed in CHO cells; arachidonic acid 10 μM; PGE2 by radioimmunoassay
T1 construct: made in house; host or cells: stably transfected Chinese hamster ovary (CHO) cells; 1700×g supernatant of sonicated cells used as crude enzyme
T1 sequence (P35354 18-604): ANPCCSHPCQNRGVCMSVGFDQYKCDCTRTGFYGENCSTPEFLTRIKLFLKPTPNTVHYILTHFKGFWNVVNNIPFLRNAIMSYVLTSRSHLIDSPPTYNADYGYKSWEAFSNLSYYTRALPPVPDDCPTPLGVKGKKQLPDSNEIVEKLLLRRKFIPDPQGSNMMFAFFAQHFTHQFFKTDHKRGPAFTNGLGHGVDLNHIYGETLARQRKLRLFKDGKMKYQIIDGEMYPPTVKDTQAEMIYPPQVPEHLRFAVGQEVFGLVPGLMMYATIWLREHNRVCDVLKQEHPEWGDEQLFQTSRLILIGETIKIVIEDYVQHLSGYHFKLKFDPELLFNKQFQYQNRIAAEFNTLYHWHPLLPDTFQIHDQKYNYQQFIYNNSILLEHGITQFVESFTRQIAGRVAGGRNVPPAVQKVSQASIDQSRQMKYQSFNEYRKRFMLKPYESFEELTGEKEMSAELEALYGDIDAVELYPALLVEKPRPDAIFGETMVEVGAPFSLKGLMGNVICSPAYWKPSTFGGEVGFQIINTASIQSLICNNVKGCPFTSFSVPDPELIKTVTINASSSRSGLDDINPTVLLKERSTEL
Procedure: (§1) a. Preparation of the recombinant cyclooxygenase (COX)
(§2) The human cyclooxygenase COX-I and COX-II were expressed in transfected Chinese hamster ovary (CHO) cells. Monolayer cultures of semi-confluent CHO cells stably expressing COX-I and COX-II were washed twice and scraped into phosphate buffered saline (PBS). The cells were centrifuged at 200×g for 5 minutes and the cell pellet was sonicated in reaction buffer containing 100 mM Tris-HCl (pH 7.4), 2 μM hematin and 5 mM tryptophan. Broken cells were centrifuged for 5 minutes at 1700×g at 4° C. and the supernatants were used as crude enzymes.
(§3) Cyclooxygenase activities in the absence or presence of inhibitors were measured by determining the level of prostaglandin E2 (PGE2) synthesis from arachidonic acid. Enzymes (1 μg for COX-I and/or 3 μg for COX-II) in a total volume of 200 μl of reaction buffer were incubated in the absence and presence of various concentrations of inhibitors for 5 minutes at 30° C. The reaction was then started by the addition of arachidonic acid to the final concentration of 10 μM. The reaction was terminated by 50 μl of HCl (1N) after incubation at 30° C. for 5 minutes. PGE2 was extracted with ethyl acetate, concentrated under a stream of nitrogen and analyzed by a radio immunoassay kit (Amersham) according to the manufacture's instructions.
(§4) b. Assay for human recombinant COX-I and COX-II activity
(§5) COX activity was assayed as PGE2 formation using radioimmunoassay to detect the prostaglandin release. The appropriate COX enzyme was incubated in 0.1 M Tris-HCl buffer (pH 7.3) containing hematin and tryptophan with the addition of arachidonic acid (10 μM) for 5 minutes at 37° C. Compounds were pre-incubated with the enzyme for 5 minutes prior to the addition of arachidonic acid. Any reaction between the arachidonic acid and the enzyme was stopped after 5 minutes at 37° C. by addition of 20 μl of 1N HCl. PGE2 formation was measured by radioimmunoassay (Amersham).

Human COX-I = target: T2, Human COX-I (Homo sapiens, UniProt P23219); assay: Human recombinant COX-I activity in vitro (PGE2 formation, radioimmunoassay); assay type: biochemical; settings: recombinant human COX-I expressed in CHO cells; arachidonic acid 10 μM; PGE2 by radioimmunoassay
T2 construct: made in house; host or cells: stably transfected Chinese hamster ovary (CHO) cells; 1700×g supernatant of sonicated cells used as crude enzyme
T2 sequence (P23219 24-599): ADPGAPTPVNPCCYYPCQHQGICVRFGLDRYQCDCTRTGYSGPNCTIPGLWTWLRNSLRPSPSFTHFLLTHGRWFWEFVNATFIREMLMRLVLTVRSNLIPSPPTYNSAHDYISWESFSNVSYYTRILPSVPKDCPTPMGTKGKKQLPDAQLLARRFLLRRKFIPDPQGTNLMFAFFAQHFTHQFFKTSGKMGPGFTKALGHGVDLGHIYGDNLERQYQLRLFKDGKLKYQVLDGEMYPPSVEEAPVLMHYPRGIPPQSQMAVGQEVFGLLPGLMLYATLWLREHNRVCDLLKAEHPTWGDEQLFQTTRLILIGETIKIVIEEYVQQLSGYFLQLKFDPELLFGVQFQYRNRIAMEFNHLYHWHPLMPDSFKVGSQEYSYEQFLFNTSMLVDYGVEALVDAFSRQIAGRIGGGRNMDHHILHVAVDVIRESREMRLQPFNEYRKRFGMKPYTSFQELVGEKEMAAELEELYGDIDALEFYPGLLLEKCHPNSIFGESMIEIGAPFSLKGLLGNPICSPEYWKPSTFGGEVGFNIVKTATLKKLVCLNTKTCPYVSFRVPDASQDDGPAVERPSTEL
Procedure: as §1, §2, §3, §4, §5

[1] = test system: Adjuvant Arthritis in Rats; assay: Effect on Adjuvant Arthritis in Rats (antiinflammatory activity); assay type: in vivo, female Sprague-Dawley rats; settings: 1.0 mg/kg, orally once a day for 23 days; paw volume on day 23 vs vehicle-treated controls

IC50 (Human COX-II) [µM] | IC50 (Human COX-I) [µM] | SMILES | Inhibition of secondary lesion (uninjected paw) [1] [%]
< 1 | > 100 | Cc1ccc(-n2nc(C(F)F)cc2-c2ccc(S(C)(=O)=O)cc2)cc1Br [3-(16), 1-(3-Bromo-4-methylphenyl)-3-(difluoromethyl)-5-[4-(methylsulfonyl)phenyl]pyrazole] | 
< 1 | > 100 | COc1ccc(-n2nc(Cl)cc2-c2ccc(S(C)(=O)=O)cc2)cc1Cl [10-(8), 3-Chloro-1-(3-chloro-4-methoxyphenyl)-5-[4-(methylsulfonyl)phenyl]pyrazole] | ≥ 60
 |  | Cc1cccc(-n2nc(C(F)(F)F)cc2-c2ccc(S(C)(=O)=O)cc2)c1 [Example 1, 1-(3-methylphenyl)-5-[4-(methylsulfonyl)phenyl]-3-(trifluoromethyl)pyrazole] | ≥ 60
< 1 | > 100 | Cc1cc(-n2nc(C#N)cc2-c2ccc(S(C)(=O)=O)cc2)ccc1F [Example 6, 1-(4-fluoro-3-methylphenyl)-5-[4-(methylsulfonyl)phenyl]pyrazole-3-carbonitrile] | 
